# Laboratory results as given in patent US11958868B2, “Methods of using metal complexes to promote wound healing” (University of Macau, priority 2022, dated 2024).
# Assays:
# [1] = target: T1, human recombinant VHL:ElonginB:ElonginC (VBC) complex (Homo sapiens, UniProt P40337); assay: Circular dichroism of VBC complex; format: binding; details: 3 μM in 1% DMSO
# T1 construct: made in house
# [2] = target: T1, human recombinant VHL:ElonginB:ElonginC (VBC) complex; assay: Fluorescence-based protein thermal shift assay (FTS) of VBC; format: binding; details: 100 μM
# Description: (§1) HEK293 cells were treated with vehicle DMSO (1% for 2 h), 1a (0.3, 1, 3, 6 and 9 μM for 2 h), VH298 (100 μM for 2 h), MG132 (20 μM for 3 h), or FG-4592 (100 μM for 2 h) before lysis. Cell lysates were collected and incubated with VHL antibody overnight at 4° C. The proteins were immunoprecipitated using agarose beads. The levels of hydroxy-HIF-1α co-precipitated with VHL were detected using a hydroxy-HIF-1α antibody, and then visualized using ECL Western Blotting Detection Reagent (GE Healthcare). (B) Cellular thermal shift assays to monitor cellular target engagement of VHL and HIF-1α. HEK293 cell lysates were treated with 1a (3 μM) at room temperature for 30 min and then heated at different temperature ranging from 48° C. to 68° C. for 5 min. The protein samples were collected and detected by Western blotting using either VHL or PHD2 antibodies. (C) Fluorescence-based protein thermal shift assay of VBC in the presence or absence of VH298 (100 μM) and complex 1a (100 μM). […] Data are expressed as means±SD (n=3 independent experiments for figures a and b, samples for figures c and e), P values were calculated using a two-sided t-test. *P<0.05, **P<0.01 vs. DMSO group.
# (§2) After incubating HEK293 cell lysates with complex 1a followed by heating to set temperatures, VHL and PHD2 levels in the soluble fraction were quantitated by Western blotting.
# [3] = target: T1, human recombinant VHL:ElonginB:ElonginC (VBC) complex; assay: Isothermal titration calorimetry (ITC); format: binding
# Description: as §1, with “μM). (D) ITC titration of complex 1a (300 μM) into recombinant VHL protein (30 μM). ITC experiments were carried in a MicroCal PEAQ-ITC Isothermal Titration Calorimeter (Malvern Panalytical). […] (F) Biolayer interferometry (BLI) kinetic analysis of the interaction between complex 1a and VBC. VBC was surface-immobilized to Ni-NTA biosensors.” for “μM).”
# as §2
# [4] = test system: HIF-1α, VEGF, GLUT1 and EPO levels in HEK293 cells; assay: Western blotting of HIF-1α and HIF-1α target gene products in HEK293 cells; format: cell-based, Human; details: 2 h
# Description: (§3) FIG. 3 depicts the effect of complex 1a on HIF-1α target gene products in cellulo. (A) Effect of complex 1a on specific proteins (GLUT1, VEGF, and EPO) mediated by HIF-1α in HEK293 cells. HEK293 cells were treated with 1a for 2 h. Cell lysis were collected and analyzed by the Western blotting. (B) Complex 1a has no effect on HIF-1α accumulation in a VHL null cancer cell line. A498 (VHL-null), or HEK293 cells were treated with 1% DMSO, 1a (3 μM), VH298 (100 μM), and FG-4592 (100 μM) for 2 h before lysis. (C) Effect of complex 1a on EPO, GLUT1, and VEGF levels in HEK293 cells with or without HIF-1α knockdown. Left: The expression levels of EPO, GLUT1, and VEGF in HEK293 cells with or without knockdown HIF-1α in the presence or absence of 1a. Right: Densitometry analysis of EPO, GLUT1, and VEGF levels on the Western blot. HIF-1α siRNA [sense, 5′-[…]-3′ (SEQ ID NO:1), antisense, 5′-[…]-3′ (SEQ ID NO:2)]. Negative control (NC) siRNA [sense, 5′-[…]-3′ (SEQ ID NO:3), antisense, 5′-[…]-3′ (SEQ ID NO:4)]. Data are expressed as means±SD (n=3 independent experiments), P values were calculated using a two-sided t-test. #P<0.05, P<0.01 HIF-1α siRNA vs. NC siRNA, *P<0.05, **P<0.01 1a vs. vehicle/DMSO group, respectively.
# Therefore, the effect of complex 1a on HIF-1α and HIF-1α target protein levels in cellulo was investigated. […]
# [5] = test system: HIF-1α levels in A498 (VHL-null) cells; assay: HIF-1α accumulation in VHL-null A498 cells; format: cell-based; details: 1a 3 μM, VH298 100 μM, 2 h
# Description: as §3, with “respectively. […]” for “respectively.”
# [6] = test system: EPO, GLUT1 and VEGF in HIF-1α knockdown HEK293 cells; assay: HIF-1α knockdown assay in HEK293 cells; format: cell-based, Human; details: HIF-1α siRNA
# Description: as §3
# A knockdown assay was performed to further verify the on-target effect of complex 1a. EPO, GLUT1, and VEGF are target genes regulated by HIF-1α. […]
# [7] = Stability in solution (1H NMR, UV/Vis); format: physicochemical; details: 298 K
# Description: Based on the structure of complex 1, a focused library of 14 cyclometalated Rh(III) and Ir(III) complexes containing different CAN or NAN donor ligands were designed and synthesized (1a-1n) (FIG. 1c). This library was enriched in the brpy CAN and dmeophen N^N ligands that were identified in the first round of screening to be favorable substructures for potency.
# T1 sequence (P40337 whole entry): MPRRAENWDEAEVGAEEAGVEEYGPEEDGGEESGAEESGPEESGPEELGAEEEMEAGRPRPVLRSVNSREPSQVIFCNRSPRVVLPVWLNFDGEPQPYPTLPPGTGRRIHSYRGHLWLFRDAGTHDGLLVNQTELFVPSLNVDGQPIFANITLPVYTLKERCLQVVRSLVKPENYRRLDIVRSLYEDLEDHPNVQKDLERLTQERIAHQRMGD
# T1 sequence (Q15370 whole entry partner): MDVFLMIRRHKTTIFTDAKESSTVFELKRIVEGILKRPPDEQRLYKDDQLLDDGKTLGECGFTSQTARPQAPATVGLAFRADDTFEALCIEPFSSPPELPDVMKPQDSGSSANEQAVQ
# T1 sequence (Q15369 whole entry partner): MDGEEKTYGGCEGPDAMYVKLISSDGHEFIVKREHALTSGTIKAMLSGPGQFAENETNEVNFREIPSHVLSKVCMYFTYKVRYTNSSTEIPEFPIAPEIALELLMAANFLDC
structure (smiles),measurement,setting,value
COc1cc[n+]2c3c1ccc1c(OC)cc[n+](c13)[Ir-3]213([c]2ccccc2-c2cccc[n+]21)[c]1ccccc1-c1cccc[n+]13.F[P-](F)(F)(F)(F)F [1a],Circular dichroism signal of VBC complex,[1],distinct shift of the signal
same,Shift of the melting curve of purified VBC (FTS),[2],ca. 3.0 °C
same,ΔG (ITC),[3],-8.14 kcal/mol
same,ΔH (ITC),[3],-7.85 kcal/mol
same,−TΔS (ITC),[3],-0.29 kcal/mol
same,Kd,"[3]; 300 μM complex titrated into 30 μM VBC, 25° C.",1080 ± 200 nM
same,"Expression levels of HIF-1α, VEGF, GLUT1 and EPO",[4],increased in a dose-dependent manner
same,HIF-1α levels in A498 cells,[5],no increase in HIF-1α levels
same,"Accumulation of EPO, GLUT1 and VEGF in HIF-1α knockdown cells compared with normal cells",[6],"less able to increase the accumulation of EPO, GLUT1, and VEGF in HIF-1α knockdown cells"
same,Stability in [d6]DMSO/D2O (9:1) solution,[7]; 1H NMR spectroscopy,remarkable stability in a [d6]DMSO/D2O (9:1) solution for at least seven days
same,Stability in acetonitrile/H2O (9:1) solution,[7]; UV/Vis spectroscopy,for at least seven days
